Results from patent publication US20140088114A1, “FUSED BICYCLIC KINASE INHIBITORS” (OSI Pharmaceuticals ,LLC, priority 2011, published 2014).
Read-outs that look alike come from different tables or passages of the source.

Columns and labels:
Format in all cases: cell-based
Aurora B = biological target: T1, Aurora B (Homo sapiens, UniProt Q96GD4); experiment: Aurora B cell mechanistic assay (HT-29), phospho-Histone H3 (Ser10) ELISA; settings: HT-29 cell line, inhibition of phospho-Histone H3 (Ser10), at least duplicate experiments (italicized if single); read-out: Aurora B mech IC50
T1 construct: HT-29 cells grown in complete growth media; endogenous in cells; host or cells: HT-29
Procedure: The cellular activity of the compounds of the present invention against Aurora B may be determined by the following procedure. HT-29 cells grown in complete growth media (McCoy's 5A, 10% FCS, 1% L-glutamine) were plated into wells of a 96 well tissue culture plate (Falcon 3072) at a cell density of 4×10^4 cells/0.09 ml media/well. Cells were subsequently incubated overnight in a 5% CO2 humidified 37° C. incubator. The following day 10 μl of a 10× stock of test compound serially diluted in media was added to the cells and incubated for 1 h at 37° C. at which time Calyculin A (Cell Signaling #9902) was added at a concentration of 100 nM and cells incubated for an additional 30 minutes in a 5% CO2 humidified 37° C. incubator. Media was then aspirated and cells lysed using a Triton based lysis buffer. Lysates were transferred to a pre-coated anti-Histone H3 antibody coated plate supplied by Cell Signaling in their PathScan phospho-Histone H3 (Ser10) ELISA kit (#7155). After an overnight incubation with lysate the ELISA was continued following the manufacturer's instructions. Signal was measured on a Wallac Victor plate reader at 450 nm. DMSO control treated cells served as 100% signal and an Aurora B kinase inhibitor served as 100% inhibition. The percent inhibition of phospho-Histone H3 (Ser10) was expressed as % control. IC50 values were calculated from the percent control data using a standard four-parameter model.
(§1) The IC50 values of exemplary compounds of the present invention determined in a Aurora B cell mechanistic assay using the HT-29 cell line according to the procedures described herein in at least duplicate experiments are abbreviated as follows and are shown in Table 4: A, IC50≦0.03 μM; B, 0.03 μM<IC50≦0.1 μM; C, 0.1 μM<IC50≦1 μM; D, 1 μM<IC50≦3 μM; ND, not determined. If only data from single experiments are available, the abbreviations are italicized. The Example # of Table 4 corresponds to the compound example number as illustrated in the Examples section.

Karpas-299 cells = experiment: Karpas-299 cell proliferation assay (CellTiter-Glo); settings: Homo sapiens, 72 h; Karpas-299 cell line (NPM-ALK), 3 days incubation, at least duplicate experiments; read-out: Prolif. IC50
Procedure: The effect of inhibitors on the proliferation of Karpas-299 cells (DSMZ no. ACC 31) was determined using the following protocol. Karpas-299 cells were plated in 96-well white tissue culture treated plates (Corning 3917) in growth medium (RPMI, 10% FCS) at a density of 5000 cells/well in a total volume of 135 μL and incubated at 37° C., 5% CO2, 95% humidity overnight. The following day, one-tenth volume of a 10× concentration of compounds was added to the wells in an 8-point dilution series. Compounds were serially diluted (1:4) in DMSO from a 10 mM stock solution prior to dilution in growth media to the 10× working concentrations (5% DMSO). Final concentration of DMSO in compound-treated wells was 0.5%. Control wells containing growth media or growth media/0.5% DMSO were included in all test plates. The typical dilution range is 10 μM to 0.1 nM. Once the compounds were added to the cells, plates were incubated for 3 days at 37° C., 5% CO2 at 95% humidity. After 72 hours, all cells and reagents were equilibrated to room temperature and 15 μL of CellTiter-Glo reagent (Promega #G7573) was added to each well. Plates were shaken on a platform for 10 minutes at room temperature prior to reading luminescence. The value of the signal of the control wells was set as 100% growth and growth inhibition was expressed as percent of control. IC50 values were determined from the percent of control data using a standard four-parameter curve fit equation.
as §1, with “a” for “a Aurora B”, “proliferation” for “mechanistic”, “Karpas-299” for “HT-29”, “5:” for “4:”, “determined.” for “determined. If only data from single experiments are available, the abbreviations are italicized.”, “5” for “4”
The Karpas-299 cell line has a t(2;5) chromosomal translocation and expresses the NPM-ALK fusion protein, resulting in constitutively active ALK. […] Ther. 6(12):3314-22 (2007)]. With this “ALK-driven” cell line by ALK, the cell proliferation IC50 values can thus be used as surrogate for the p-ALK cell mechanistic IC50 values.

RON = biological target: T2, RON (Homo sapiens, UniProt Q04912); experiment: sfRON cell mechanistic assay (HeLa), phosphorylated RON
T2 construct: expressed in transfected cells; host or cells: HeLa
T2 sequence (Q04912 913-1400 limits assumed): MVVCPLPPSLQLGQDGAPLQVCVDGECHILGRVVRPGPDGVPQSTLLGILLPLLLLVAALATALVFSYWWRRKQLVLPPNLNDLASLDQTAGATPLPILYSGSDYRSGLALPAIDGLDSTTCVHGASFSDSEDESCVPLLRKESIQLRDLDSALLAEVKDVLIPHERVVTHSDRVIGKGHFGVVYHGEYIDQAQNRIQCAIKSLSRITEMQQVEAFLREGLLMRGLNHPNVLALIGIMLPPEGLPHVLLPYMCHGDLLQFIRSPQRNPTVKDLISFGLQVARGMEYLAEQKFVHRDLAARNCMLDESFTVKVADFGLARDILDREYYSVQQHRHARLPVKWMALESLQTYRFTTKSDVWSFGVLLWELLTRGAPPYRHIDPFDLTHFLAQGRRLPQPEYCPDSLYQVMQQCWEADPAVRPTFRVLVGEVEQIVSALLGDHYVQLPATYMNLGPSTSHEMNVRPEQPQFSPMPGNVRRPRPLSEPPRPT
Procedure: The cellular activity of the compounds of the present invention against RON may be determined by the following procedure. HeLa cells were plated in Falcon 3072 96-well plates in growth media (DMEM, 10% FBS, 1% L-glutamine) at a density of 10000 cells/well and incubated at 37° C., 5% CO2 overnight. The following day, cells were transfected with 0.2 μg sfRON-pcDNA plasmid DNA with 0.5 μL Lipofectamine2000 per well in the presence of 50 μL OPTI-MEM, incubated at 37° C., 5% CO2 overnight. Costar 3915 96-well assay plates were coated with rabbit Anti-RON antibody at 2.0 μg/mL, sealed, and incubated overnight at 4° C. On the third day, coated plates were washed with PBS and blocked with 3% BSA. For the sfRON transfected cells, one-tenth volume of a 10× concentration of compounds was added to the wells in a 6-point dilution series. The dilution series was composed of an initial 1:5 dilution of a 10 mM DMSO stock solution of compound in DMSO, followed by a 1:10 dilution in growth media, for a final DMSO concentration on cells of 0.5%. Control wells were treated with 0.5% DMSO. The typical range of dilution was 10 μM to 3 nM. Once compound was added to the cells, plates were incubated for four hours at 37° C., 5% CO2. Plates were then washed in PBS, and lysed in triton-based lysis buffer. Lysates were transferred to the blocked capture plates. The phosphorylated RON levels were measured by incubating with a Goat polyclonal antibody against phosphorylated RON ([pYpY1238/1239]) followed by an anti-Goat antibody conjugated to HRP. Signal was measured on a Wallac Victor plate reader with luminance. The DMSO signal of the control wells was defined as 100% and the percent of inhibition of phosphorylated RON was expressed as percent of control. IC50 values were determined from the percent of control data using a standard four-parameter model.
as §1, with “sfRON” for “Aurora B”, “HeLa” for “HT-29”, “3:” for “4:”, “determined.” for “determined. If only data from single experiments are available, the abbreviations are italicized.”, “3” for “4”

[1] = Table 6: comparison X = C1-3haloalkyl vs. X = C1-3alkyl, read-out: sfRON cell mechanistic

T1 sequence (Q96GD4 whole entry): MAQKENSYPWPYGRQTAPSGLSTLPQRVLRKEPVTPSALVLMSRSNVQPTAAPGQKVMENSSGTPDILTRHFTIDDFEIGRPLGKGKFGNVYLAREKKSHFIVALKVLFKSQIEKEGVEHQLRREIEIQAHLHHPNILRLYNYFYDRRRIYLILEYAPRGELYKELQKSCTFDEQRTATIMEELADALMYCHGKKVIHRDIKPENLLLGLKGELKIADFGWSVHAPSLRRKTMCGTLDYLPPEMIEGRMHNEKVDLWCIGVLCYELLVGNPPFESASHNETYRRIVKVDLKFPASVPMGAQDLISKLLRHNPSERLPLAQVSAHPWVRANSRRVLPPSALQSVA

Row | IC50 (Aurora B) | IC50 (Karpas-299 cells) | IC50 (RON; sfRON transfected HeLa cells, four hours incubation, inhibition of phosphorylated RON, at least duplicate experiments, read-out: sfRON mech IC50) | IC50 (RON; [1]) | Compound
1 | 100 to 1000 nM | 100 to 1000 nM | 1000 to 3000 nM |  | COc1ccc(F)c(Cl)c1[C@H](CF)c1c[nH]c2ncc(-c3cnn([C@H]4CC[C@H](O)CC4)c3)cc12 [Example 2, trans-4-(4-{3-[(1R)-1-(2-chloro-3-fluoro-6-methoxyphenyl)-2-fluoroethyl]-1H-pyrrolo[2,3-b]pyridin-5-yl}-1H-pyrazol-1-yl)cyclohexanol]
2 |  |  |  | 1000 to 3000 nM | CC(c1c(Cl)ccc(F)c1Cl)c1c[nH]c2ncc(-c3cnn(C)c3)cc12 (stereo not drawn) [reference compound]
3 |  |  |  | 100 to 1000 nM | COc1ccc(F)c(Cl)c1[C@@H](C)c1c[nH]c2ncc(-c3cnn([C@H]4CC[C@H](O)CC4)c3)cc12 [reference compound]
4 |  |  |  | 30 to 100 nM | C[C@H](c1c(OC(F)F)ccc(F)c1Cl)c1c[nH]c2ncc(-c3cnn([C@H]4CC[C@H](O)CC4)c3)cc12 [reference compound]
